Source: patent EP2042188A1, “PHARMACEUTICAL COMPOSITION FOR TREATING OR PREVENTING HCV INFECTION” (priority 2006, dated 2007)
Like-named read-outs stand apart in the source and are kept apart here.

Key:
[1] = test system: NS3 protein; assay: Immunoblotting and immunofluorescent staining of NS3 protein in HCV replicon cells; format: cell-based
[2] = test system: FLR3-1 HCV subgenomic replicon cells (genotype 1b; Con-1); assay: Luciferase assay of HCV replication in HCV subgenomic replicon cells; format: cell-based; conditions: Hepatitis C virus; for IC50: 72 h, FLR3-1 cells, read-out: IC50 of myriocin
Description: First, myriocin (Sigma, St. Louis, MO, USA) was added at a final concentration of 0.2, 1.0, 3.9, 15.6, or 62.5 nM to a growth medium for FLR3-1 HCV subgenomic replicon cells (genotype 1b; Con-1; Sakamoto, H. et al., Nat Chem Biol, 1, 333-337 (2005)). After 72 hours of incubation, the present inventors carried out luciferase assay using the Bright-Glo luciferase assay kit (Promega, Madison, WI, USA).
FLR3-1 cells were incubated with 1 or 2.5 µM of a sphingolipid intermediate (dihydrosphingosine, sphingosine, or sphingosine-1-phosphate), and then serial dilutions of myriocin were added thereto. After 72 hours, IC50 in each combination was determined by luciferase assay.

[3] = Serum human albumin level (Alb-II kit) in HCV 1b infected chimeric mice; format: in vivo, chimeric mice having humanized liver; conditions: serum of HCV 1b infected chimeric mice
Description: The present inventors monitored the human albumin (h-Alb) level at the same time. The human albumin level was determined using 2 µl of serum and the Alb-II kit (Eiken Chemical, Tokyo, Japan) according to the manufacturer's instructions.

[4] = test system: HCV genotype 1b (HCR6); assay: Serum HCV RNA (real-time PCR) in chimeric mice with humanized liver infected with HCV genotype 1b, myriocin and/or PEG-IFN; format: in vivo, chimeric mice having humanized liver; conditions: after eight days, myriocin 1 mg/kg (reduced to 0.5 mg/kg on weight loss)
Description: The inhibitory activity of myriocin was examined using chimeric mice having humanized liver infected with HCR6 (genotype 1b). The chimeric mice used were purchased from PhoenixBio Co. (Hiroshima, Japan).
Specifically, according to Table 2, myriocin and/or PEG-IFN (Chugai, Tokyo, Japan) were administered intraperitoneally or subcutaneously into mice infected with HCV genotype 1b (HCR6; accession number AY045702) and blood was collected. Table 2: Administration schedule for chimeric mice infected with HCV genotype 1b
In Table 2, the symbols B, I, and M indicate that each step was conducted as needed and the administration of agents was started on day 0. PEG-IFN was injected at a dose of 30 µg/kg. The dose of myriocin injection was varied depending on the mouse weight. The administration was started at 1 mg/kg (M). When the weight was reduced by 10%, the dose was reduced to 0.5 mg/kg (M1/2). The administration was discontinued when the weight was reduced by 20%.
Next, total RNAs were purified using AGPC method from 1 µl of sera or hepatic tissues collected from the chimeric mice. HCV RNA was quantified by real-time PCR using a method known to those skilled in the art (Takeuchi, T. et al., Gastroenterology, 116, 636-642 (1999)).

[5] = test system: FLR3-1 cells; assay: Cell viability (Tetra Color One kit); format: cell-based; conditions: 72 hours of incubation, 0.2 to 62.5 nM
Description: Furthermore, myriocin was added to FLR3-1 cells, and after 72 hours of incubation, the cell viability was determined using Tetra Color One kit (Seikagakukogyo, Tokyo, Japan) according to the manufacturer's instructions.

[6] = test system: de novo sphingolipid biosynthesis in FLR3-1 cells; assay: De novo sphingolipid biosynthesis monitored by [14C]-serine incorporation and TLC; format: cell-based; conditions: TLC
Description: To investigate the correlation between sphingolipid metabolites and HCV replication, the present inventors monitored the de novo sphingolipid biosynthesis in FLR3-1 cells in the presence of myriocin.
First, FLR3-1 cells were incubated with [^14C]-serine (0.5 µCi/ml) in Opti-MEM (Invitrogen) for two hours. After the cells were lysed in 0.1% SDS, total lipid was extracted using chloroform/methanol (1:2 (v/v)). The extract was spotted onto a Silica gel 60 thin layer chromatography (TLC) plate (Merck, Darmstadt, Germany), and chromatographed using methyl acetate/ 1-propanol/ chloroform/methanol/ 0.25% KCl (25:25:25:10:9 (v/v)). Radioactive spots were detected using BAS 2000 (Fujifilm, Kanagawa, Japan).

[7] = test system: HCV genotype, 1a (HCG9); assay: HCV RNA and core protein in serum and liver of chimeric mice infected with HCV genotype 1a; format: in vivo; conditions: 2 mg/kg of myriocin every day for six days
Description: The serum RNA level in these mice reached about 1x10^8 copies/ml, 10 times higher than that of HCV 1b (HCR6) (Fig. 5A). Therefore, it was assumed that the HCV core protein in the hepatocytes could be readily detected by immunofluorescent staining. The present inventors administered 2 mg/kg of myriocin to 1a-4 chimeric mice every day for six days and then excised the livers. For comparison, livers were also excised from non-treated mice (1a-1), non-infected mice (1a-2), and PEG-IFN-treated mice (1a-3) in the same way. The livers were homogenized in RIPA, and 100 µg of the total protein was used for detection of the core protein using the Ortho HCV core protein ELISA kit (Eiken Chemical).
Next, the liver tissues of the chimeric mice were examined by immunofluorescent staining. Liver sections from the 1a-1 and 1a-4 mice were probed using a biotinylated anti-HCV core protein monoclonal antibody and anti-human hepatocyte monoclonal antibody (Dako, Glostrup, Denmark) as primary antibodies. Then, the sections were probed with streptavidin-Alexa 488 (Invitrogen) and anti-mouse IgG-Alexa-546 (Invitrogen). Furthermore, nuclei were stained with DAPI.
The effect of myriocin treatment on the expression of HCV RNA and core protein in the livers of the chimeric mice was confirmed by the method described above.

With CCCCCCC(=O)CCCCCC/C=C/C[C@@H](O)[C@H](O)[C@@](N)(CO)C(=O)O [myriocin, Myriocin] the NS3 protein [1] was “reduced”, the IC50 ([2]; Agent added: Dihydrosphingosine 1.0 µM) was 77.7 nM and the IC50 ([2]; Agent added: Dihydrosphingosine 2.5 µM) was > 1000 nM. For the same compound, the IC50 ([2]; Agent added: Sphingosine 1.0 µM) was 22.4 nM, the IC50 ([2]; Agent added: Sphingosine 2.5 µM) was > 1000 nM and the IC50 ([2]; Agent added: Sphingosine-1-phosphate 1.0 µM) was 14.7 nM. The IC50 ([2]; Agent added: Sphingosine-1-phosphate 2.5 µM) was > 1000 nM, the IC50 ([2]; No agent added, luciferase assay) was ~5.8 nM and the inhibition at 0.0625 µM ([2]; in the presence of 62.5 nM myriocin, 72 hours, read-out: maximum inhibitory rate (luciferase activity)) was ~80%. For the same compound, the human albumin level [3] was “without affecting h-Alb”, the “reduction of serum level of HCV RNA” value [4] was 10 to 100 times and the “serum level of HCV RNA” value ([4]; before treatment 3 x 10^6 to 1 x 10^7 copies/ml) was 6 x 10^5 to 1 x 10^4 copies/ml. The cell viability [5] was “without affecting the cell viability”, the “production of both ceramide and sphingomyelin” value [6] was “inhibited in a dose dependent manner” and the “production of phosphatidylethanolamine and phosphatidylserine” value [6] was “not affected”. For the same compound, the “HCV 1a RNA and core protein in the liver” value ([7]; 1a-4 mice) was “also reduced”, the “serum level of HCV RNA” value ([7]; 1a-4 mice, non-treated about 1x10^8 copies/ml) was 1 x 10^5 copies/ml and the “core protein in human hepatocytes (immunofluorescent staining)” value ([7]; liver sections of 1a-4 mice) was “disappeared”.
